Test results: US9834558B2, “Substituted bridged urea analogs as sirtuin modulators” (GLAXOSMITHKLINE LLC, priority 2013, dated 2017)
Where a name gives a salt, the structure may show the parent alone. Read-outs that look alike come from different tables or passages of the source.

Target: T1, SIRT1 (Homo sapiens, UniProt Q96EB6)
T1 sequence (Q96EB6 1-747): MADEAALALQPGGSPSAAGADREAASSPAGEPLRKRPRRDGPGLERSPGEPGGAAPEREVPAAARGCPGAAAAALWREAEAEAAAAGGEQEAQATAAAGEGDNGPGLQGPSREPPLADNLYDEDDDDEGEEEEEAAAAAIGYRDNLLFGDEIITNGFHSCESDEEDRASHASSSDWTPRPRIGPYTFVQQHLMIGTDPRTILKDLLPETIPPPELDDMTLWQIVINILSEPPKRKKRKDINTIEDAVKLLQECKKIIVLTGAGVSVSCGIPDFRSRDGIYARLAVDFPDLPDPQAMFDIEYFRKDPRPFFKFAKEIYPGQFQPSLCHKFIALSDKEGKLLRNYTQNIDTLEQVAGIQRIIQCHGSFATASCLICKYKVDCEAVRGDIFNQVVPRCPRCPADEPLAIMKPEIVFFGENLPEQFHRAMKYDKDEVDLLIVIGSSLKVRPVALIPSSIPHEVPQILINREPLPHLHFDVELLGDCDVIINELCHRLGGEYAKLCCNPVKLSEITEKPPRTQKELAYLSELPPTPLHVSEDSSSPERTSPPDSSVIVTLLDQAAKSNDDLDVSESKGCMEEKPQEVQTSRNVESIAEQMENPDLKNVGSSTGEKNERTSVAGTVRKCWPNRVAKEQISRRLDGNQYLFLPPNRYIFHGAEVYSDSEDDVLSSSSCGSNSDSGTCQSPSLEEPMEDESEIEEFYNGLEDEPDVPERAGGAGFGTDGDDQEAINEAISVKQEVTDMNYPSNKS
Test: Trp mass spectrometry assay of SIRT1 activation
Assay type: biochemical
Settings: for TRP Activity (EC1.5): EC1.5 = concentration that results in 150% activation of SIRT1
How it was run: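 Activation read-out: mass-spec measurement of O-acetyl-ADP-ribose or deacetylated Trp peptide versus compound-free controls, giving EC1.5 and Percent Maximum Activation. Reactions ran 25 min at 25 °C, pH 7.5, with 120 μM βNAD+, 0.5 μM acetylated p53-derived peptide and 10 nM His-tagged SIRT1.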

[1] = Trp peptide assay, maximum activity relative to control (100%), read-out: TRP MAX RESP (percent maximum fold activation)
[2] = concentration giving 150% activation of SIRT1, Trp peptide substrate
[3] = Trp mass spectrometry assay, EC1.5 = concentration of test compound that results in 150% activation of SIRT1

## Cc1cc(-c2ccc3c(n2)N(C(=O)N2CCN(C)CC2)[C@H]2CCN3C2)ccn1 [(9S)-8-[(4-methylpiperazin-1-yl)carbonyl]-5-(2-methylpyridin-4-yl)-1,6,8-triazatricyclo[7.2.1.0 {2,7}]dodeca-2,4,6-triene]
Trp peptide assay
  TRP Activity (EC1.5): C (C (EC1.5>25 μM))
[1]
  Emax: < 150%

## COc1cc(NC(=O)N2c3nc(-c4cccc(Cl)c4)ccc3N3C[C@@H](O)[C@H]2C3)nc(OC)n1 [Example 680]
[2]
  Tryp AVG EC1.5 (μM): B (B (EC1.5 1-25 μM))

## O=C(Nc1ccc(F)cn1)N1c2nc(-c3ccnc(N4CCC(F)(F)C4)c3)ccc2N2CC[C@H]1C2 [Example 425]
[3]
  Tryp AVG EC1.5 (μM): A (A (EC1.5<1 μM))

## O=C(Nc1cccnn1)N1c2nc(-c3cccc(Cl)c3)ccc2N2C[C@@H](O)[C@H]1C2 [Example 682]
[2]
  Tryp AVG EC1.5 (μM): B (B (EC1.5 1-25 μM))

## O=C(Nc1cnccn1)N1c2nc(-c3ccnc(C(F)(F)F)n3)ccc2N2CC[C@H]1C2 [(9S)-N-(pyrazin-2-yl)-5-[2-(trifluoromethyl)pyrimidin-4-yl]-1,6,8-triazatricyclo[7.2.1.0 {2,7}]dodeca-2(7),3,5-triene-8-carboxamide]
Trp peptide assay
  TRP Activity (EC1.5): B (B (EC1.5 1-25 μM))
[1]
  Emax: > 150%

## Cc1cc(C)n(N)c1CC1C=CC(CCC(=O)NCc2cn(-c3cccc(NC(=O)N4c5nc(-c6cccc(C(F)(F)F)c6)ccc5N5CC[C@H]4C5)c3)nn2)=N1 (stereo partly drawn) [Example 622]
[3]
  Tryp AVG EC1.5 (μM): C (C (EC1.5>25 μM))
Trp mass spectrometry assay, percent maximum fold activation of SIRT1, read-out: Tryp % Fold Act
  Emax: < 150%

## COc1cc(NC(=O)N2c3nc(-c4cncc(Cl)c4)ccc3N3CCC2CC3)ncn1 [Example 552]
[3]
  Tryp AVG EC1.5 (μM): C (C (EC1.5>25 μM))

## Cc1ccc(-c2ccc3c(n2)N(C(=O)NCC2CC2)[C@H]2CCN3C2)cn1 [(9S)-N-(cyclopropylmethyl)-5-(6-methylpyridin-3-yl)-1,6,8-triazatricyclo[7.2.1.0^{2,7}]dodeca-2,4,6-triene-8-carboxamide]
Trp peptide assay
  TRP Activity (EC1.5): B (B (EC1.5 1-25 μM))
[1]
  Emax: > 150%

## O=C(Nc1cccc(-c2cnco2)c1)N1c2nc(-c3cncc(F)c3)ccc2N2CC[C@H]1C2 [Example 722]
[2]
  Tryp AVG EC1.5 (μM): A (A (EC1.5<1 μM))

## O=C(Nc1cncc(F)c1)N1c2nc(-c3cccc(N4CCOCC4)c3)ccc2N2CCC[C@H]1C2 [Example 559]
[3]
  Tryp AVG EC1.5 (μM): A (A (EC1.5<1 μM))

## O=C(Nc1nnc(-c2cccnc2)o1)N1c2nc(-c3cccc(C(F)(F)F)c3)ccc2N2CC[C@H]1C2 [Example 721]
[2]
  Tryp AVG EC1.5 (μM): A (A (EC1.5<1 μM))

## Cn1ncc2cc(NC(=O)N3c4nc(-c5cccc(C(F)(F)F)c5)ccc4N4CC[C@H]3C4)ccc21 [Example 87]
Trp peptide substrate, concentration giving 150% activation of SIRT1
  Tryp AVG EC1.5 (μM): A (A (EC1.5<1 μM))

## O=C(Nc1cccnc1)N1c2nc(-c3cnn(-c4ccccc4)c3)ccc2N2CC[C@H]1C2 [Example 549]
[3]
  Tryp AVG EC1.5 (μM): B (B (EC1.5 1-25 μM))

## O=C(Nc1cccc(-c2cnco2)c1)N1c2nc(-c3cncc(C(F)(F)F)c3)ccc2N2C[C@@H](O)[C@H]1C2 [Example 709]
[2]
  Tryp AVG EC1.5 (μM): A (A (EC1.5<1 μM))

## Cc1cc(-c2ccc3c(n2)N(C(=O)N2CCO[C@@H](C)C2)[C@H]2CCN3C2)ccn1 [(9S)-8-{[(2S)-2-methylmorpholin-4-yl]carbonyl}-5-(2-methylpyridin-4-yl)-1,6,8-triazatricyclo[7.2.1.0 {2,7}]dodeca-2(7),3,5-triene hydrochloride]
Trp peptide assay
  TRP Activity (EC1.5): C (C (EC1.5>25 μM))
[1]
  Emax: < 150%

## O=C(Nc1ccc(F)cn1)N1c2nc(-c3ccnc(N4CC[C@@H](F)C4)c3)ccc2N2CC[C@H]1C2 [Example 474]
[3]
  Tryp AVG EC1.5 (μM): A (A (EC1.5<1 μM))

## O=C(Nc1cnccn1)N1c2nc(N3CCO[C@H](C(F)(F)F)C3)ccc2N2CC[C@H]1C2 [drawing 1226, (9S)-N-(pyrazin-2-yl)-5-[(2S)-2-(trifluoromethyl)morpholin-4-yl]-1,6,8-triazatricyclo[7.2.1.0 {2,7}]dodeca-2(7),3,5-triene-8-carboxamide]
Trp peptide assay
  TRP Activity (EC1.5): B (B (EC1.5 1-25 μM))
[1]
  Emax: > 150%

## O=C(Nc1cnccn1)N1c2nc(-c3cccc(C(F)(F)F)n3)ccc2N2CC[C@H]1C2 [Example 338]
Trp mass spectrometry assay, concentration of test compound giving 150% activation of SIRT1
  Tryp AVG EC1.5 (μM): B (B (EC1.5 1-25 μM))
